Consider 9 compounds from paper PMC11858597, “Synthesis, Anticancer Screening, and In Silico Evaluations of Thieno[2,3-c]pyridine Derivatives as Hsp90 Inhibitors” (Pharmaceuticals, 2025).

A word on the inhibition: it is the relative decrease from the control value, in per cent.

What all share (format): cell-based
Test [1] has as its system RKO. The test is described as follows: MTT assay, RKO colorectal cancer cells. The settings on record: Homo sapiens, 72 h, read-out: % cell growth inhibition. From the text:
(§1) An MTT assay was used to evaluate the final compounds’ anticancer activity against MCF7 and T47D (breast cancer cells), HSC3 (head and neck cancer cells), and RKO (colorectal cancer cells) cell lines, using cisplatin as a reference standard. Table 1 presents the percentage growth inhibition of all compounds against the various cancer cell lines.
(§2) The cancer cell lines MCF7 and T47D (breast cancer cells), HSC3 (head and neck cancer cells), and RKO (colorectal cancer cells) were kindly provided by Prof. Stephan Feller, Institute of Molecular Medicine, Martin Luther University, Halle, Germany. The human fibroblast (PDL) cell line was obtained as a kind gift from Prof. Khaled Al-Qaoud (Yarmouk University, Irbid, Jordan). All cell lines were cultured in Dulbecco’s Modified Eagle’s Medium (DMEM) supplemented with 10% fetal bovine serum, 100 µg/mL streptomycin, 100 U/mL penicillin, and 1% non-essential amino acid at 37 °C with 5% CO2 in a humidified CO2 incubator. The cell cultures were grown to confluence, and the medium was changed two times weekly.
(§3) The MTT (3-[4,5-dimethylthiazol-2-yl]-2,5-diphenyl tetrazolium bromide) assay was used to investigate cell viability and to calculate the half-maximal inhibitory concentration (IC50) values of the compounds 6(a–k) including standard reference cisplatin. Furthermore, […] stock solutions of the compounds were prepared in DMSO where all compounds were completely soluble. Cells were seeded in 96-well tissue culture plates at a density of 6,000 cells/well for MCF7, T47D, and PDL cells and at a density of 4000 cells/well for RKO and HSC3 cells. After 24 h of seeding, investigated cells were treated with three concentrations (1, 10, and 100 µm) of the compounds for 72 h. At the end of the treatment time, the supernatant medium was aspirated, and 50 µL of fresh DMEM containing MTT (0.5 mg/mL) was added to each well. Cells were then incubated at 37 °C for 2–4 h. After that, the medium was completely removed, and 50 µL of DMSO was added to each well to dissolve the precipitated formazan crystals formed by viable cells. Cell viability, represented by the absorbance of the formazan solution, was measured at 570 nm using the Synergy HTX Multimode Reader (BioTek, Vermont, USA), and cell viability was determined as described in the literature. For each concentration, the relative cell viability was calculated as follows: relative cell viability = (mean treatment absorbance/mean control absorbance) × 100%. Assays were performed in triplicate on three independent experiments. […] IC50 values were then calculated using the four-parameter logistic function in the SigmaPlot software (version 12.5) and presented as the mean ± SD from three independent experiments.

Test [2] relates to T47D. The experiment in a line: MTT assay, T47D breast cancer cells. The settings on record: Homo sapiens, 72 h, read-out: % cell growth inhibition.
Description: as §1, §2, §3
In general terms: Tetrazolium dyes change colour on reduction, which living cells bring about.

Test [3] has as its system MCF7. The test is described as follows: MTT assay, MCF7 breast cancer cells. The settings on record: 72 h; for inhibition at 1 µM / inhibition at 10 µM / inhibition at 100 µM: Homo sapiens, read-out: % cell growth inhibition; for inhibition at 1 µM: MCF7, 1 µM; for inhibition at 10 µM: MCF7, 10 µM; for inhibition at 100 µM / % cell growth inhibition: MCF7, 100 µM.
Description: as §1, §2, §3

Test [4] deals with HSC3. The test is described as follows: MTT assay, HSC3 head and neck cancer cells. The settings on record: Homo sapiens, HSC-3, 72 h, 72 h, read-out: % cell growth inhibition; for inhibition at 1 µM: HSC3, 1 µM; for inhibition at 10 µM: HSC3, 10 µM; for inhibition at 100 µM: HSC3, 100 µM.
Description: as §1, §2, §3

In the case of `CCOC(=O)c1c(NC(=O)CN2CCOCC2)sc2c1CCN(C(=O)OCC)C2` [6h, Diethyl 2-(2-morpholinoacetamido)-4,7-dihydrothieno[2,3-c]pyridine-3,6(5H)-di-carboxylate], the inhibition at 1 µM worked out at 8.76% in test [1], 0% in test [2], 0% in test [3] and 0% in test [4]. For the same compound, the inhibition at 10 µM amounted to 19.1% in test [1], 17.8% in test [2], 20.3% in test [3] and 9.88% in test [4]. Further, the inhibition at 100 µM in test [1] worked out at 93.3%; in test [2], 78.2%; in test [3] it was 77.2%; in test [4], 77.9%.
Turning to `CCOC(=O)c1c(NC(=O)CN2CCN(c3ncccn3)CC2)sc2c1CCN(C(=O)OCC)C2` [6k, Diethyl 2-(2-(4-(pyrimidin-2-yl)piperazin-1-yl)acetamido)-4,7-dihydrothieno[2,3-c]-pyridine-3,6(5H)-dicarboxylate], the inhibition at 1 µM in test [1], in test [2], in test [3] and in test [4] was 0% in each case. Also, the inhibition at 10 µM in test [1] was found to be 22.2%; in test [2] it was 10.1%; in test [3] it was 12.2%; in test [4] it was 11.3%. The inhibition at 100 µM in test [1] is 96.1%; in test [2] it was 76.5%; in test [3] it was 80%; in test [4], 86.2%.
`CCOC(=O)c1c(NC(=O)CN2CCN(c3ccccc3OC)CC2)sc2c1CCN(C(=O)OCC)C2` [6g, Diethyl 2-(2-(4-(2-methoxyphenyl)piperazin-1-yl)acetamido)-4,7-dihydrothieno[2,3-c]-pyridine-3,6(5H)-dicarboxylate]: in test [1], the inhibition at 1 µM was 0.53%, the inhibition at 10 µM amounted to 14.6% and the inhibition at 100 µM was 68.4%. In addition, in test [2], the inhibition at 1 µM was determined as 0%, the inhibition at 10 µM was 14.2% and the inhibition at 100 µM was 59.9%. In test [3], the inhibition at 1 µM was 3.4%, the inhibition at 10 µM worked out at 6.36%, the inhibition at 100 µM was determined as 57.3% and the “% cell growth inhibition” value is reported as “weaker inhibition”. Besides, in test [4], the inhibition at 1 µM was 0%, the inhibition at 10 µM was 15.9% and the inhibition at 100 µM is 56.9%.
For `CCOC(=O)c1c(NC(=O)CN2CCN(CC)CC2)sc2c1CCN(C(=O)OCC)C2` [6e, Diethyl 2-(2-(4-ethylpiperazin-1-yl)acetamido)-4,7-dihydrothieno[2,3-c]pyridine-3,6(5H)-dicarboxylate], the inhibition at 1 µM worked out at 6.17% in test [1], 5.23% in test [2], 4.67% in test [3] and 3.26% in test [4]. Besides, the inhibition at 10 µM worked out at 7.24% in test [1], 3.12% in test [2], 11.7% in test [3] and 5.51% in test [4]. In addition, the inhibition at 100 µM turned out to be 90.1% in test [1], 79.4% in test [2], 74.2% in test [3] and 75.8% in test [4].
With `CCOC(=O)c1c(NC(=O)CN2CCN(C(=O)c3ccco3)CC2)sc2c1CCN(C(=O)OCC)C2` [6j, Diethyl 2-(2-(4-(furan-2-carbonyl)piperazin-1-yl)acetamido)-4,7-dihydrothieno[2,3-c]-pyridine-3,6(5H)-dicarboxylate], the inhibition at 1 µM in test [1], in test [2], in test [3] and in test [4] was 0% in each case. For the same compound, the inhibition at 10 µM is 17.3% in test [1], 1.19% in test [2], 16.2% in test [3] and 29.9% in test [4]. Also, the inhibition at 100 µM in test [1] turned out to be 96.8%; in test [2], 76%; in test [3] it was 76.5%; in test [4], 86.4%.
Regarding `CCOC(=O)c1c(NC(=O)CN2CCN(C(=O)OC(C)(C)C)CC2)sc2c1CCN(C(=O)OCC)C2` [6f, Diethyl 2-(2-(4-(tert-butoxycarbonyl)piperazin-1-yl)acetamido)-4,7-dihydrothieno[2,3-c]-pyridine-3,6(5H)-dicarboxylate], in test [1], the inhibition at 1 µM came to 6.11%, the inhibition at 10 µM is 17.2% and the inhibition at 100 µM stood at 47.6%. Besides, in test [2], the inhibition at 1 µM came to 7.62%, the inhibition at 10 µM came to 16.2% and the inhibition at 100 µM is 34.1%. For the same compound, in test [3], the inhibition at 1 µM came to 7.34%, the inhibition at 10 µM came to 10%, the inhibition at 100 µM is 39% and the “% cell growth inhibition” value is listed as “weaker inhibition”. For the same compound, in test [4], the inhibition at 1 µM stood at 0%, the inhibition at 10 µM was determined as 16.8% and the inhibition at 100 µM worked out at 45.8%.
On to `CCOC(=O)c1c(NC(=O)CN2CCNCC2)sc2c1CCN(C(=O)OCC)C2` [6c, Diethyl 2-(2-(piperazin-1-yl)acetamido)-4,7-dihydrothieno[2,3-c]pyridine-3,6(5H)-dicarboxylate], for which the inhibition at 1 µM was determined as 17.1% in test [1], 3.7% in test [2], 0% in test [3] and 6.71% in test [4]. Besides, the inhibition at 10 µM in test [1] amounted to 30.9%; in test [2] it was 28.1%; in test [3], 22.1%; in test [4], 30%. The inhibition at 100 µM in test [1] is 93.6%; in test [2], 80.8%; in test [3], 81%; in test [4] it was 83.4%.
`CCOC(=O)c1c(NC(=O)CN2CCC(C)CC2)sc2c1CCN(C(=O)OCC)C2` [6b, Diethyl 2-(2-(4-methylpiperidin-1-yl)acetamido)-4,7-dihydrothieno[2,3-c]pyridine-3,6-(5H)-dicarboxylate]: the inhibition at 1 µM in test [1] is 10.7%; in test [2], 7.79%; in test [3] it was 2.74%; in test [4], 4.06%. The inhibition at 10 µM in test [1] turned out to be 39.3%; in test [2], 24.4%; in test [3], 29.7%; in test [4] it was 38%. The inhibition at 100 µM is 94.1% in test [1], 82% in test [2], 83.2% in test [3] and 79.4% in test [4].
Take `CCOC(=O)c1c(NC(=O)CN2CCN(C)CC2)sc2c1CCN(C(=O)OCC)C2` [6d, Diethyl 2-(2-(4-methylpiperazin-1-yl)acetamido)-4,7-dihydrothieno[2,3-c]pyridine-3,6-(5H)-dicarboxylate]: the inhibition at 1 µM in test [1] is 0%; in test [2], 0%; in test [3], 1.42%; in test [4] it was 0%. Also, the inhibition at 10 µM in test [1] is 0%; in test [2], 2.54%; in test [3], 3.7%; in test [4], 0%. Besides, the inhibition at 100 µM stood at 94.4% in test [1], 82.1% in test [2], 79.3% in test [3] and 83.9% in test [4].
